Test results: patent US9040713B2, “Methods of managing blood sugar levels and compositions related thereto” (EMORY UNIVERSITY, priority 2010, dated 2015)

Assays:
3T3-L1 adipocytes = assay: [3H] 2-deoxyglucose transport in 3T3-L1 adipocytes; type: cell-based, mouse; conditions: for glucose uptake after depletion of IR: siRNA against IR
Experimental: NIH 3T3-L1 preadipocytes and MEFs were grown in standard media. MEF were continuously passed in standard media to generate spontaneously immortalizedfibroblasts. […] 3T3-L1 adipocytes were reseeded into 12-well plates 10 to 12 days after differentiation. […] The transport reaction was initiated by adding 2-deoxyglucose (final 100 uM) with [3H] 2-deoxyglucose (0.2 μCi/well). After a 10 min incubation period, cells were washed three times with ice-cold PBS, solubilized in 1% SDS, 1M NaOH. After neutralization, radioactivity was measured by scintillation counting

wild-type MEF cells = assay: [3H] 2-deoxyglucose transport in wild-type MEF cells; type: cell-based, mouse; conditions: insulin 100 nM 15 min or compound 5 μM 30 min
Experimental: Insulin signaling in the cell lysates were tested by immunoblotting. (B) DDN stimulates glucose uptake. […] [3H]2-deoxyglucose was then added, and the cells were further incubated for 10 min. [3H]2-deoxyglucose uptake by adipocytes was measured by scintillation counting (*: P<0.05 **: P<0.01 vs control, Student's t-test, n=3). (C) DDN synergizes insulin's signaling. […] Cell lysates were then prepared for Western blot using specific antibodies as indicated. […] 3H-2-deoxyglucose was then added, and the cells were further incubated for 10 min. 3H-2-deoxyglucose uptake by adipocytes was measured by scintillation counting (*: P<0.05; **: P<0.01, Student's t-test, n=3). (E) IR is necessary for DDN to induce ERK phosphorylation. Differentiated 3T3-L1 adipocytes were transfected with control siRNA or siRNA against IR. […] Cell lysates were analyzed by Western blot. (F) The glucose uptake induced by DDN in p85α knockout MEF cells. […] The uptake of 3H-2-deoxyglucose was monitored by liquid scintillation counting (*: P<0.05; **: P<0.01 vs control, Student's t-test, n=3).
(A) 4524-E7 activates IR phosphorylation and its downstream signaling in 3T3-L1 adipocytes. […] The cells were lysed, and immunoprecipitated with PY20, and followed by Western blot using specific antibodies. (B) 4524-E7 stimulates glucose uptake in 3T3-L1 adipocytes. […] [3H]2-deoxyglucose was added, and the cells were further incubated for 10 min. The amount of [3H]2-deoxyglucose taken by adipocytes was measured. (C) 4524-E7 inhibits fatty acid oxidation. […] Results were normalized to DMSO-treated cells and expressed as mean±S.E.M. (*: P<0.05; **:P<0.01, Student's t-test, n=3). (D) IR knockdown in adipocytes decreases IR signaling by 4524-E7. […] Cells lysates were collected and analyzed by Western blot. […] 2-deoxyglucose was monitored by liquid scintillation counter. Results were expressed as mean±S.E.M. (*: P<0.05; **:P<0.01, Student's t-test, n=3).
NIH 3T3-L1 preadipocytes and MEFs were grown in standard media. […] After neutralization, radioactivity was measured by scintillation counting

C57BL/6J mice = assay: Blood glucose level test in C57BL/6J mice; type: in vivo, mouse; conditions: for time until decrease of blood glucose: DDN 20 mg/kg oral, insulin 1 U/kg i.p.
Experimental: (A) DDN reduces blood glucose in C57BL/6J mice. […] Blood glucose was monitored before and after dosing at various time points as indicated (*: P<0.05, **: P<0.01; ***: P<0.001, n=10-13, Two-way ANOVA vs vehicle). (B) DDN provokes IR phosphorylation and its downstream signaling in C57BL/6J mice. Three month-old C57BL/6J mice were starved for 12 h and then orally administrated with vehicle (0.5% methylcellulose), DDN (20 mg/kg) or 2NH2-NQ (20 mg/kg). Cell lysates were prepared from liver and muscle tissues collected at 3, 4, and 5 h after drug administration and analyzed by immunoprecipitation and immunoblotting. (C) DDN quickly activates IR phosphorylation and its downstream signaling. Three-month-old C57BL/6J mice were starved for 12 h and then injected with vehicle, 5 mg/kg DDN or 5 mg/kg 2NH2-NQ through vena cava. After 5 min, the liver was collected and analyzed by immunobloting using specific antibodies.
(§1) (A) 4524-E7 provokes IR phosphorylation in various tissues of mice. Three-month-old C57BL/6J mice were starved for 12 h and then dosed with vehicle (0.5% methylcellulose) or 4524-E7 (20 mg/kg). Cell lysates from liver, muscle, and WAT were prepared at 3, 4, and 5 h after drug administration and analyzed by immunoblotting. (B) Basal and insulin-stimulated hepatic glucose production rates were measured by hyperinsulinemic-euglycemic clamp. […] (C) Hypoglycemic effect of 4524-E7 in C57BL/6J mice. C57BL/6J mice were starved for 12 h and then orally administrated with vehicle (0.5% methylcellulose) or 4524-E7 (5 mg/kg). Blood glucose was monitored at different time points as indicated (n=8, *: P<0.05, two-way ANOVA). (D) Hypoglycemic effect in db/db mice. db/db mice were starved for 12 h and then orally injected with vehicle (0.5% methylcellulose) or 4524-E7 (5 mg/kg). Blood glucose was monitored at different time points as indicated (n=5, *: P<0.05, two-way ANOVA). (E) Glucose tolerance test in ob/ob mice. The mice were starved for 12 hours and then orally administrated with vehicle or 4524-E7 (5 mg/kg). A bonus of glucose (2 gm/kg) was injected intraperitoneally 1 hour later. Blood glucose was then measured at 30 min intervals (n=13, *: P<0.05; **: P<0.01, two-way ANOVA).
After a 12 h fasting, C57B5L/6J and db/db mice were bled from the tail vein for a baseline measurement with a glucometer (Accu-Chek; Roche Diagnostics, Indianapolis, Ind.). Afterward, animals were orally administered 5 mg/kg compound in 0.5% methylcellulose through a feeding needle. Blood glucose levels were measured at hourly intervals over 5 h.

db/db mice = assay: Blood glucose level test in db/db mice; type: in vivo, mouse; conditions: for duration of blood glucose lowering effect: DDN 5 mg/kg oral, insulin 1 U/kg i.p.
Experimental: Three-month-old mice were starved for 12 h and then orally administrated with vehicle (0.5% methylcellulose) or DDN (5 mg/kg). Cell lysates were prepared from liver and muscle tissues collected at 1 and 2 h after drug administration and analyzed by immunoprecipitation and immunoblotting. […] Three-month-old mice were starved for 12 h and then orally administrated with vehicle (0.5% methylcellulose) or DDN (5 mg/kg). Cell lysates were prepared from liver and muscle tissues collected at 1 and 2 h after drug administration and analyzed by immunoprecipitation and immunoblotting. (C) Hypoglycemic function of DDN in db/db mice. The animals were starved for 12 h and then orally injected with vehicle (0.5% methylcellulose) or DDN (5 mg/kg). […] Blood glucose was monitored before and after drug administration at 1-hour intervals (*: P<0.05, **: P<0.01, n=5, Two-way ANOVA vs vehicle). (D) DDN improves the glucose tolerance in ob/ob mice. The animals were starved for 12 h and then orally dosed with vehicle (0.5% methylcellulose) or DDN (5 mg/kg). […] A bonus of glucose (2 gm/kg) was injected intraperitoneally 1 hour later. Blood glucose was measured at 30-min intervals (*: P<0.05, **:P<0.01, n=5, Two-way ANOVA vs vehicle control).
as §1
After a 12 h fasting, C57B5L/6J and db/db mice were bled from the tail vein for a baseline measurement with a glucometer (Accu-Chek; Roche Diagnostics, Indianapolis, Ind.). […] Blood glucose levels were measured at hourly intervals over 5 h.

Molecule	glucose uptake as compared to control (3T3-L1 adipocytes; 5 μM, 30 min)	lowest concentration significantly elevating glucose uptake (3T3-L1 adipocytes; 30 min) [µM]	glucose uptake in combination with insulin (3T3-L1 adipocytes; 4524-E7 plus 10 nM insulin, versus the two agents alone)	glucose uptake after depletion of IR (3T3-L1 adipocytes)	[3H]-2-deoxyglucose uptake (wild-type MEF cells)	blood glucose (C57BL/6J mice; 5 mg/kg single oral administration, 3˜4 h after)	blood glucose (db/db mice; 5 mg/kg oral, one hour after administration)	glucose uptake in combination with insulin (3T3-L1 adipocytes; 5 nM DDN plus 5 nM insulin)	3H-deoxyglucose uptake (3T3-L1 adipocytes; DDN 0.1, 0.25, 0.5 μM, 30 min)	blood glucose as compared to vehicle control (C57BL/6J mice; 20 mg/kg oral, 12 h starved)	time until decrease of blood glucose (C57BL/6J mice)	blood glucose as compared to vehicle control (db/db mice; 5 mg/kg oral, one h after administration)	duration of blood glucose lowering effect (db/db mice)	3H-deoxyglucose uptake (3T3-L1 adipocytes; 5 nM, alone)
O=C1c2ccccc2C(=O)C2SC(Nc3ccc(Cl)cc3)=NC12 (stereo not shown) [4524-E7, 2-((4-chlorophenyl)amino)naphtho[2,3-d]thiazole-4,9(3aH,9aH)-dione]	nearly quadrupled	1	additively escalated	substantially diminished	triggered robust [3H]-2-deoxyglucose uptake	70 % of basal level	about 50 % of the initial value	–	–	–	–	–	–	–
CC(=O)Oc1ccc(OC(C)=O)c2c1C(=O)C(Cl)=C(Cl)C2=O [DDN, 5,8-diacetyloxy-2,3-dichloro-1,4-naphthoquinone]	–	–	–	–	triggered robust 3H-deoxyglucose uptake	–	–	further increased	escalated 3H-deoxyglucose uptake in a dose-dependent manner	significantly reduced blood glucose	3 h	lower blood glucose was found in db/db mice	sustain till the end of the experiment	–
insulin: insulin, used as positive control	–	–	–	substantially diminished	triggered robust [3H]-2-deoxyglucose uptake	–	–	–	–	–	Thirty min	–	2 h	significantly increased
